{"source": "patent US9650334B2", "about": "(AbbVie Deutschland GmbH & Co. KG, priority 2013, dated 2017)", "data": [{"biological_target": "T1, human GlyT1c transporter (Homo sapiens, UniProt P48067)", "T1 sequence (P48067 1-706)": "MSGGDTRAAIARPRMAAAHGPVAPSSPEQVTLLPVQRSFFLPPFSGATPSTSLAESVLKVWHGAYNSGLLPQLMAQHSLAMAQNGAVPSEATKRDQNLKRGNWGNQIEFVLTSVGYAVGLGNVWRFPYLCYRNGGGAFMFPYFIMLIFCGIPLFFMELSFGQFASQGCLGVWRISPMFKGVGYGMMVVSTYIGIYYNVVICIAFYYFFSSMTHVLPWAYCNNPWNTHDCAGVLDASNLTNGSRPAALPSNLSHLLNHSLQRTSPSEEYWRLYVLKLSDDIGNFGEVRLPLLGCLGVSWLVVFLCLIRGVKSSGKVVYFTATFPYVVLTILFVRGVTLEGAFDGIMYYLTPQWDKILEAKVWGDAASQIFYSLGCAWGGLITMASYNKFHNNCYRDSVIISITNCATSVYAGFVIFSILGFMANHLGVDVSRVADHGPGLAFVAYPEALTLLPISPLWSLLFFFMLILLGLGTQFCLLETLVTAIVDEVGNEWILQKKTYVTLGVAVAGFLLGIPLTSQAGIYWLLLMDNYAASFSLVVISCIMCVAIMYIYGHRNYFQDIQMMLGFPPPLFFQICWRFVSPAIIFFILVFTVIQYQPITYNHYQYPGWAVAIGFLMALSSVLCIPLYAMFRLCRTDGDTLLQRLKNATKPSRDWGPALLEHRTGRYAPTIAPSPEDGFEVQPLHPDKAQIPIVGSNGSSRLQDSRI", "assay": "Radioligand binding assays using recombinant CHO cell membranes expressing human GlyT1", "settings": "Ki, radioligand binding to human GlyT1c transporter-expressing CHO cell membranes", "units": {"Ki": "nM"}, "values": [{"compound": "Cn1cnc(S(=O)(=O)N2C[C@@H](Nc3ccc(F)c(F)c3)[C@H](c3ncccc3F)C2)c1", "note": "(relative stereo) [Example 766, Trans-N-(3,4-difluorophenyl)-4-(3-fluoropyridin-2-yl)-1-[(1-methyl-1H-imidazol-4-yl)sulfonyl]pyrrolidin-3-amine]", "Ki": "≤ 1000"}, {"compound": "CC(C)c1cccc(N[C@H]2CN(S(=O)(=O)c3cn(C)cn3)C[C@@H]2C2OCCCO2)c1", "note": "[Example 926, (3R,4S)-4-(1,3-dioxan-2-yl)-1-[(1-methyl-1H-imidazol-4-yl)sulfonyl]-N-[3-(propan-2-yl)phenyl]pyrrolidin-3-amine]", "Ki": "≤ 10"}, {"compound": "Cn1cnc(S(=O)(=O)N2C[C@@H](NCc3ccc(C(F)(F)F)cc3Cl)[C@H](c3ncccc3F)C2)c1", "note": "(relative stereo) [Example 761, Trans-N-[2-chloro-4-(trifluoromethyl)benzyl]-4-(3-fluoropyridin-2-yl)-1-[(1-methyl-1H-imidazol-4-yl)sulfonyl]pyrrolidin-3-amine]", "Ki": "≤ 100"}, {"compound": "Cn1cnc(S(=O)(=O)N2CC(Nc3cccc(OC(F)(F)F)c3)C(C3CCCN(C4CC4)C3)C2)c1", "note": "(stereo not drawn) [Example 641, 4-[-1-cyclopropylpiperidin-3-yl]-1-[(1-methyl-1H-imidazol-4-yl)sulfonyl]-N-[3-(trifluoromethoxy)phenyl]pyrrolidin-3-amine]", "Ki": "≤ 100"}, {"compound": "Cn1cnc(S(=O)(=O)N2C[C@H](Nc3cccc(OCC(F)F)c3)[C@@H](C3OCCCO3)C2)c1", "note": "[Example 928, (3R,4S)-N-[3-(2,2-difluoroethoxy)phenyl]-4-(1,3-dioxan-2-yl)-1-[(1-methyl-1H-imidazol-4-yl)sulfonyl]pyrrolidin-3-amine]", "Ki": "≤ 10"}, {"compound": "Cn1cnc(S(=O)(=O)N2CC3CCCN(Cc4ccc(C(F)(F)F)cc4Cl)C3C2)c1", "note": "(stereo not drawn) [Example 879, 1-[2-chloro-4-(trifluoromethyl)benzyl]-6-[(1-methyl-1H-imidazol-4-yl)sulfonyl]octahydro-1H-pyrrolo[3,4-b]pyridine]", "Ki": "≤ 1000"}, {"compound": "Cn1cnc(S(=O)(=O)N2CC3CCCCC3(NC(=O)c3ccc(Cl)cc3Cl)C2)c1", "note": "(stereo not drawn) [Example 871, 2,4-dichloro-N-{2-[(1-methyl-1H-imidazol-4-yl)sulfonyl]octahydro-3aH-isoindol-3a-yl}benzamide]", "Ki": "≤ 100"}, {"compound": "Cc1nc(CN[C@H]2CN(S(=O)(=O)c3cn(C)cn3)C[C@@H]2c2ccccc2)sc1Br", "note": "[Example 559, (3R,4S)-N-[(5-bromo-4-methyl-1,3-thiazol-2-yl)methyl]-1-[(1-methyl-1H-imidazol-4-yl)sulfonyl]-4-phenylpyrrolidin-3-amine]", "Ki": "≤ 1000"}, {"compound": "CN1CCCCC1C1CN(S(=O)(=O)c2cn(C)cn2)CC1Nc1cccc(OC(F)(F)F)c1", "note": "(stereo not drawn) [Example 898, 1-[(1-methyl-1H-imidazol-4-yl)sulfonyl]-4-(1-methylpiperidin-2-yl)-N-[3-(trifluoromethoxy)phenyl]pyrrolidin-3-amine]", "Ki": "≤ 10"}, {"compound": "Cn1cnc(S(=O)(=O)N2CC(c3ccccc3)C3(COC(=O)N3Cc3ccc(C(F)(F)F)cc3)C2)c1", "note": "(stereo not drawn) [Example 407, Trans-7-[(1-methyl-1H-imidazol-4-yl)sulfonyl]-9-phenyl-1-[4-(trifluoromethyl)benzyl]-3-oxa-1,7-diazaspiro[4.4]nonan-2-one]", "Ki": "≤ 10000"}, {"compound": "Cn1cnc(S(=O)(=O)N2C[C@H](NCc3ccc(F)cc3)[C@@H](C3OCCCO3)C2)c1", "note": "[Example 906, (3R,4S)-4-(1,3-dioxan-2-yl)-N-(4-fluorobenzyl)-1-[(1-methyl-1H-imidazol-4-yl)sulfonyl]pyrrolidin-3-amine]", "Ki": "≤ 1000"}, {"compound": "Cn1cnc(S(=O)(=O)N2CC(Nc3cccc(OC(F)(F)F)c3)C(N3CCCCC3)C2)c1", "note": "(stereo not drawn) [Example 913, 1-[(1-methyl-1H-imidazol-4-yl)sulfonyl]-4-(piperidin-1-yl)-N-[3-(trifluoromethoxy)phenyl]pyrrolidin-3-amine]", "Ki": "≤ 10"}, {"compound": "Cn1cnc(S(=O)(=O)N2CC(Nc3ccc(F)c(C(F)(F)F)c3)C(c3ccc(F)cn3)C2)c1", "note": "(stereo not drawn) [Example 927, 4-(5-fluoropyridin-2-yl)-N-[4-fluoro-3-(trifluoromethyl)phenyl]-1-[(1-methyl-1H-imidazol-4-yl)sulfonyl]pyrrolidin-3-amine]", "Ki": "≤ 10"}, {"compound": "Cn1cnc(S(=O)(=O)N2C[C@@H](c3ccccc3)[C@](C)(NCc3ccc(C(F)(F)F)cc3Cl)C2)c1", "note": "(relative stereo) [Example 356, Trans-N-[2-chloro-4-(trifluoromethyl)benzyl]-3-methyl-1-[(1-methyl-1H-imidazol-4-yl)sulfonyl]-4-phenylpyrrolidin-3-amine]", "Ki": "≤ 100"}, {"compound": "CCCCc1cn([C@H]2CN(S(=O)(=O)c3cn(C)cn3)C[C@@H]2c2ccccc2)nn1", "note": "[Example 668, 4-butyl-1-{(3R,4S)-1-[(1-methyl-1H-imidazol-4-yl)sulfonyl]-4-phenylpyrrolidin-3-yl}-1H-1,2,3-triazole]", "Ki": "≤ 10000"}, {"compound": "C[C@@H]1C[C@@H](C)OC([C@H]2CN(S(=O)(=O)c3cn(C)cn3)C[C@@H]2Nc2cccc(OC(F)(F)F)c2)O1", "note": "(stereo partly drawn) [Example 921, (3R,4S)-4-[(4R,6R)-4,6-dimethyl-1,3-dioxan-2-yl]-1-[(1-methyl-1H-imidazol-4-yl)sulfonyl]-N-[3-(trifluoromethoxy)phenyl]pyrrolidin-3-amine]", "Ki": "≤ 100"}, {"compound": "Cn1cnc(S(=O)(=O)N2C[C@H](Nc3cccc(Cl)c3)[C@@H](C3OCCCO3)C2)c1", "note": "[Example 914, (3R,4S)-N-(3-chlorophenyl)-4-(1,3-dioxan-2-yl)-1-[(1-methyl-1H-imidazol-4-yl)sulfonyl]pyrrolidin-3-amine]", "Ki": "≤ 10"}, {"compound": "Cc1cccc(C(N[C@H]2CN(S(=O)(=O)c3cn(C)cn3)C[C@@H]2c2ccc(F)cc2)C(F)(F)F)c1", "note": "(stereo partly drawn) [Example 875, (3R,4S)-4-(4-fluorophenyl)-1-[(1-methyl-1H-imidazol-4-yl)sulfonyl]-N-[2,2,2-trifluoro-1-(3-methylphenyl)ethyl]pyrrolidin-3-amine]", "Ki": "≤ 10000"}, {"compound": "Cn1cnc(S(=O)(=O)N2CC3c4ccccc4CCC3(Oc3cc(C(F)(F)F)ncn3)C2)c1", "note": "(stereo not drawn) [Example 888, 2-[(1-methyl-1H-imidazol-4-yl)sulfonyl]-3a-{[6-(trifluoromethyl)pyrimidin-4-yl]oxy}-2,3,3a,4,5,9b-hexahydro-1H-benzo[e]isoindole]", "Ki": "≤ 1000"}, {"compound": "Cn1cnc(S(=O)(=O)N2CC3CCCCC3(NCc3ccc(C(F)(F)F)cc3Cl)C2)c1", "note": "(stereo not drawn) [Example 869, N-[2-chloro-4-(trifluoromethyl)benzyl]-2-[(1-methyl-1H-imidazol-4-yl)sulfonyl]octahydro-3aH-isoindol-3a-amine]", "Ki": "≤ 10"}, {"compound": "Cn1cnc(S(=O)(=O)N2C[C@H](Nc3cccc(OC(F)(F)F)c3)[C@@H](C3OCC4(CC4)CO3)C2)c1", "note": "[Example 920, (3R,4S)-4-(5,7-dioxaspiro[2.5]oct-6-yl)-1-[(1-methyl-1H-imidazol-4-yl)sulfonyl]-N-[3-(trifluoromethoxy)phenyl]pyrrolidin-3-amine]", "Ki": "≤ 10"}, {"compound": "Cn1cnc(S(=O)(=O)N2C[C@@H](C(=O)c3cccc(F)c3)[C@H](c3ccc(F)cc3)C2)c1", "note": "(relative stereo) [Example 301]", "Ki": "≤ 1000"}, {"compound": "Cn1cnc(S(=O)(=O)N2CC(Cc3cccc(C(F)(F)F)c3)C(C3OCCCO3)C2)c1", "note": "(stereo not drawn) [Example 918, 4-({3-(1,3-dioxan-2-yl)-4-[3-(trifluoromethyl)benzyl]pyrrolidin-1-yl}sulfonyl)-1-methyl-1H-imidazole]", "Ki": "≤ 1000"}, {"compound": "Cn1cnc(S(=O)(=O)N2CC(Nc3cccc(OC(F)(F)F)c3)C(c3ccc(F)cn3)C2)c1", "note": "(stereo not drawn) [Example 895, 4-(5-fluoropyridin-2-yl)-1-[(1-methyl-1H-imidazol-4-yl)sulfonyl]-N-[3-(trifluoromethoxy)phenyl]pyrrolidin-3-amine]", "Ki": "≤ 10"}, {"compound": "Cn1cnc(S(=O)(=O)N2C[C@@H](c3ccccc3)[C@](CO)(NCc3ccc(C(F)(F)F)cc3)C2)c1", "note": "(relative stereo) [Example 401]", "Ki": "≤ 10000"}, {"compound": "Cn1cnc(S(=O)(=O)N2C[C@H](Nc3cccc(OC(F)F)c3)[C@@H](C3OCCCO3)C2)c1", "note": "[Example 925, (3R,4S)-N-[3-(difluoromethoxy)phenyl]-4-(1,3-dioxan-2-yl)-1-[(1-methyl-1H-imidazol-4-yl)sulfonyl]pyrrolidin-3-amine]", "Ki": "≤ 10"}]}, {"biological_target": "T1, human GlyT1c transporter", "assay": "Radioligand binding assays using recombinant CHO cell membranes expressing human GlyT1", "settings": "radioligand binding to human GlyT1c transporter-expressing CHO cell membranes", "units": {"Ki": "nM"}, "values": [{"compound": "6-(cyclohexyloxy)-N-{(3R,4S)-4-(4-fluorophenyl)-1-[(1-methyl-1H-imidazol-4-yl)sulfonyl]pyrrolidin-3-yl}pyrimidin-4-amine [Example 721]", "Ki": "≤ 100"}, {"compound": "2,2-difluoro-N-{(3R,4S)-4-(4-fluorophenyl)-1-[(1-methyl-1H-imidazol-4-yl)sulfonyl]pyrrolidin-3-yl}pentanamide [Example 700]", "Ki": "≤ 10000"}, {"compound": "N-{(3R,4S)-4-(4-fluorophenyl)-1-[(1-methyl-1H-imidazol-4-yl)sulfonyl]pyrrolidin-3-yl}-6-(2-methylpropoxy)pyrimidin-4-amine [Example 718]", "Ki": "≤ 100"}, {"compound": "6-butoxy-N-{(3R,4S)-4-(4-fluorophenyl)-1-[(1-methyl-1H-imidazol-4-yl)sulfonyl]pyrrolidin-3-yl}pyrimidin-4-amine [Example 717]", "Ki": "≤ 100"}]}]}
